Test results: patent US20250074911A1, “MACROCYCLIC BTK INHIBITORS” (Crossfire Oncology Holding B.V., priority 2021, published 2025)

Tests used:
[1] = test system: wt-REC-1 mantle cell lymphoma cells; test: Cell proliferation assay wt-REC-1 (ATPlite, 72 hours); format: cell-based; settings: 72 h; read-out: IC50 wt-REC-1
Description: Results of the BTK […] binding affinity are shown in Table 1 below. • IC50 BTK […]: […] wt-REC-1 mantle cell lymphoma cells were purchased from American Type Culture Collection via Synthego Corporation (cat. no. CRL-3004, ATCC). […] Luminescence was recorded on an Envision multimode reader. The cell signal at the start of incubation was recorded separately in order to distinguish between cell population growth and cell death. In addition, maximum growth was determined by incubation of a duplicate without compound in the presence of 0.3% DMSO. Percentage growth was used as the main y-axis signal. IC50s were fitted by non-linear regression using IDBS XLfitTM5 using a 4-parameter logistic curve, yielding a maximum signal, minimum signal, hill-parameter and IC50. Results of the wt-REC-1 proliferation are shown in Table 1 below. • IC50 wt-REC-1: […]

[2] = test system: REC-1 T474I cell lines; test: Cell proliferation assay REC-1 BTK T474I knock-in cells (ATPlite, 72 hours); format: cell-based; settings: Homo sapiens, Rec1; 72 hours; read-out: IC50 REC-1 T474I
Description: Cell proliferation assay Generation of BTK […] knock-in cell lines wt-REC-1 cell lines expressing mutant BTK were created at Synthego Corporation. Cell lines expressing BTK […] was generated via CRISPR/Cas9. Monoclonal REC-1 […] cell lines were obtained by single cell cloning. The mutation status of all cell lines was confirmed via sequencing. […] Luminescence was recorded on an Envision multimode reader. The cell signal at the start of incubation was recorded separately in order to distinguish between cell population growth and cell death. In addition, maximum growth was determined by incubation of a duplicate without compound in the presence of 0.3% DMSO. Percentage growth was used as the main y-axis signal.

[3] = target: full-length wt-BTK enzyme (Homo sapiens (Human), UniProt Q06187); test: Biochemical kinase assay wt-BTK (IMAP)
Sequence of full-length wt-BTK enzyme (Q06187 whole entry): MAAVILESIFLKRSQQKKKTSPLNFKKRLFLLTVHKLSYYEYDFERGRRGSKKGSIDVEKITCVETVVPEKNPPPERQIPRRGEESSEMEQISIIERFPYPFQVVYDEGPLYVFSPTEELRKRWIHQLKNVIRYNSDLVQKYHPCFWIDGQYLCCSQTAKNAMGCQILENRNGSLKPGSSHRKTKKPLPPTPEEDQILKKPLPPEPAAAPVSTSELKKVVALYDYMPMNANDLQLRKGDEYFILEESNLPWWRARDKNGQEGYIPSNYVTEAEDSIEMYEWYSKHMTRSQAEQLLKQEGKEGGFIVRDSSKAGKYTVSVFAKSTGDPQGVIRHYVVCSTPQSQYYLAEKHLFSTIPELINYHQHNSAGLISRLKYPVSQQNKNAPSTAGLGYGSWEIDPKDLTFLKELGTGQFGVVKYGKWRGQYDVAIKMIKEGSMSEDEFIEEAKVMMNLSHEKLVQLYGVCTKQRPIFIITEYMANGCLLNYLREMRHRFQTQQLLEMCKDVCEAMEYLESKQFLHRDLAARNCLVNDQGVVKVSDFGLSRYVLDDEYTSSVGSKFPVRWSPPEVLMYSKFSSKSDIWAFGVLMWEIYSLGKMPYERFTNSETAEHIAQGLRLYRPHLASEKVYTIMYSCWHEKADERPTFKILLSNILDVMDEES
Description: Biochemical kinase assay wt-BTK To determine the inhibitory activity of compounds on wt-BTK enzyme activity, the IMAP® assay (Molecular Devices) was used. […] After pre-incubation of 1 hour in the dark at room temperature, fluorescein-labeled MBP-derived substrate peptide (Molecular Devices, cat. no. RP 7123) was added, followed by ATP to start the reaction. Final enzyme concentration was 1.2 nM, final substrate concentration 50 nM, and final ATP concentration was 4 μM. The reaction was allowed to proceed for 2 hours at room temperature in the dark. The reaction was stopped by quenching with IMAP progressive binding solution according to the protocol of the manufacturer (Molecular Devices). Fluorescein polarization was measured on an Envision multimode reader (Perkin Elmer, Waltham, MA, U.S.A.). […] Results of the wt-BTK binding affinity are shown in Table 1 below. • IC50 wt-BTK: […]

[4] = target: full-length BTK C481S enzyme (Homo sapiens (Human), UniProt Q06187, C481S); test: Biochemical kinase assay BTK C481S (IMAP)
Sequence of full-length BTK C481S enzyme (Q06187 whole entry C481S): as the sequence (Q06187 whole entry) above, with C481S counted along it
Description: Biochemical kinase assay BTK […] To determine the inhibitory activity of compounds on BTK C481S enzyme activity, the IMAP® assay (Molecular Devices) was used. […] After pre-incubation of 1 hour in the dark at room temperature, fluorescein-labeled MBP-derived substrate peptide (Molecular Devices, cat. no. RP 7123) was added, followed by ATP to start the reaction. Final enzyme concentration was 1.2 nM final substrate concentration 50 nM, and final ATP concentration was 7 μM. The reaction was allowed to proceed for 2 hours at room temperature in the dark. The reaction was stopped by quenching with IMAP progressive binding solution according to the protocol of the manufacturer (Molecular Devices). Fluorescein polarization was measured on an Envision multimode reader (Perkin Elmer, Waltham, MA, U.S.A.). IC50 were calculated using XLfitTM5 software (ID Business Solutions, Ltd., Surrey, U.K.). Results of the BTK […] binding affinity are shown in Table 1 below. • IC50 BTK […]: […]

IC50 [1] [nM]	IC50 [3] [nM]	IC50 [4] [nM]	SMILES	IC50 [2] [nM]
1000 to 10000	50 to 500	50 to 500	Nc1ncc2c3c1c(-c1ccc(C(=O)Nc4ccccn4)cc1)nn3[C@@H]1CCC[C@H](C1)C(=O)NCCCC/C=C/C2 [Example 87a]	500 to 10000
1000 to 10000	5 to 50	5 to 50	Nc1ncc2c3c1c(-c1ccc(C(=O)Nc4cc(C(F)(F)F)ccn4)cc1)nn3[C@@H]1CCC[C@H](C1)NC(=O)CC/C=C/C2 [Example 95]	500 to 10000
100 to 1000	5 to 50	< 5	C[C@@H]1CCn2nc(-c3ccc(C(=O)Nc4cc(C(F)(F)F)ccn4)cc3)c3c(N)ncc(c32)/C=C/CCCCCCCCC(=O)N1 [Example 64]	500 to 10000
< 100	< 5	< 5	Nc1ncc2c3c1c(-c1ccc(C(=O)Nc4ccccn4)cc1)nn3[C@@H]1CCC[C@H](C1)NC(=O)CCCCCCC2 [Example 126]	100 to 500
1000 to 10000	5 to 50	5 to 50	C[C@@H]1CCn2nc(-c3ccc(C(=O)Nc4cc(C(F)(F)F)ccn4)cc3)c3c(N)ncc(c32)CC=CCCCCCC(=O)N1 [Example 111]	500 to 10000
100 to 1000	5 to 50	5 to 50	Nc1ncc2c3c1c(-c1ccc(C(=O)Nc4cc(C(F)(F)F)ccn4)cc1)nn3[C@@H]1CCC[C@H](C1)C(=O)NCCCCC/C=C/C2 [Example 89a]	500 to 10000
100 to 1000	5 to 50	50 to 500	Nc1ncc2c3c1c(-c1ccc(C(=O)Nc4cc(C(F)(F)F)ccn4)cc1)nn3[C@@H]1CCC[C@H](C1)C(=O)NCCCC/C=C/C2 [Example 85a]	500 to 10000
100 to 1000	< 5	< 5	Nc1ncc2c3c1c(-c1ccc(C(=O)Nc4cc(C(F)(F)F)ccn4)cc1)nn3[C@@H]1CCC[C@H](C1)NC(=O)CCC/C=C\C2 [Example 94b]	500 to 10000
1000 to 10000	50 to 500	50 to 500	Nc1ncc2c3c1c(-c1ccc(C(=O)Nc4ccccn4)cc1)nn3[C@@H]1CCC[C@H](C1)NC(=O)COC/C=C/C2 [Example 104a]	500 to 10000
1000 to 10000	< 5	< 5	C[C@@H]1CCn2nc(-c3ccc(C(=O)Nc4cc(C(F)(F)F)ccn4)cc3)c3c(N)ncc(c32)/C=C/CNCCCC(=O)N1 [Example 67]	500 to 10000
100 to 1000	5 to 50	< 5	Nc1ncc2c3c1c(-c1ccc(C(=O)Nc4cc(C(F)(F)F)ccn4)cc1)nn3[C@@H]1CCC[C@H](C1)C(=O)NCCCCCC2 [Example 117]	500 to 10000
1000 to 10000	5 to 50	5 to 50	Nc1ncc2c3c1c(-c1ccc(C(=O)Nc4cc(C(F)(F)F)ccn4)cc1)nn3[C@@H]1CCC[C@H](C1)NC(=O)CCCNC/C=C/C2 [Example 107]	500 to 10000
1000 to 10000	50 to 500	50 to 500	Nc1ncc2c3c1c(-c1ccc(C(=O)Nc4ccccn4)cc1)nn3[C@@H]1CCC[C@H](C1)NC(=O)CCC/C=C/C2 [Example 99a]	500 to 10000
1000 to 10000	50 to 500	50 to 500	Nc1ncc2c3c1c(-c1ccc(C(=O)Nc4cc(C(F)(F)F)ccn4)cc1)nn3[C@@H]1CCC[C@H](C1)C(=O)NCCCCC2 [Example 116]	500 to 10000
100 to 1000	5 to 50	5 to 50	Nc1ncc2c3c1c(-c1ccc(C(=O)Nc4ccccn4)cc1)nn3[C@@H]1CCC[C@H](C1)C(=O)NCCCCC/C=C/C2 [Example 88a]	500 to 10000
1000 to 10000	5 to 50	5 to 50	Nc1ncc2n3c(nc(-c4ccc(C(=O)Nc5cc(C(F)(F)F)ccn5)cc4)c13)CCCNC(=O)CCCC=CC2 [Example 135]	–

IC50 [1] [nM]	IC50 [3] [nM]	IC50 [4] [nM]	SMILES	IC50 [2] [nM]
100 to 1000	5 to 50	5 to 50	Nc1ncc2c3c1c(-c1ccc(C(=O)Nc4cc(C(F)(F)F)ccn4)cc1)nn3[C@@H]1CCC[C@H](C1)NC(=O)CCC/C=C/C2 [Example 94a]	500 to 10000
100 to 1000	5 to 50	5 to 50	COC1/C=C/c2cnc(N)c3c(-c4ccc(C(=O)Nc5cc(C(F)(F)F)ccn5)cc4)nn(c23)[C@@H]2CCC[C@H](C2)NC(=O)CCC1 (stereo partly drawn) [Example 19]	500 to 10000
100 to 1000	50 to 500	50 to 500	Nc1ncc2c3c1c(-c1ccc(C(=O)Nc4ccccn4)cc1)nn3[C@@H]1CCC[C@H](C1)NC(=O)CCCCC2 [Example 124]	500 to 10000
< 100	< 5	< 5	Nc1ncc2c3c1c(-c1ccc(C(=O)Nc4ccccn4)cc1)nn3[C@@H]1CCC[C@H](C1)NC(=O)CCCCC/C=C/C2 [Example 102a]	< 100
100 to 1000	5 to 50	5 to 50	Nc1ncc2c3c1c(-c1ccc(C(=O)Nc4ccccn4)cc1)nn3[C@@H]1CCC[C@H](C1)NC(=O)CCCCCC2 [Example 125]	500 to 10000
100 to 1000	5 to 50	5 to 50	C[C@@H]1CCn2nc(-c3ccc(C(=O)Nc4cc(C(F)(F)F)ccn4)cc3)c3c(N)ncc(c32)CCCOCC(=O)N1 [Example 122]	500 to 10000
1000 to 10000	5 to 50	5 to 50	C[C@@H]1CCn2nc(-c3ccc(C(=O)Nc4cc(C(F)(F)F)ccn4)cc3)c3c(N)ncc(c32)CCCO[C@H](C)C(=O)N1 [Example 113]	500 to 10000
100 to 1000	< 5	< 5	C[C@@H]1CCn2nc(-c3ccc(C(=O)Nc4cc(C(F)(F)F)ccn4)cc3)c3c(N)ncc(c32)/C=C/CCCCCCCC(=O)N1 [Example 63]	500 to 10000
100 to 1000	5 to 50	5 to 50	Nc1ncc2c3c1c(-c1ccc(C(=O)Nc4cc(C(F)(F)F)ccn4)cc1)nn3[C@@H]1CCC[C@H](C1)NC(=O)CCCCC/C=C/C2 [Example 101a]	500 to 10000
1000 to 10000	5 to 50	5 to 50	Nc1ncc2c3c1c(-c1ccc(C(=O)Nc4cc(C(F)(F)F)ccn4)cc1)nn3[C@@H]1CCC[C@H](C1)NC(=O)COC/C=C/C2 [Example 97a]	500 to 10000
1000 to 10000	5 to 50	5 to 50	Nc1ncc2n3c(nc(-c4ccc(C(=O)Nc5cc(C(F)(F)F)ccn5)cc4)c13)[C@@H]1CCC[C@H](C1)NC(=O)CC/C=C/C2 [Example 136]	–
1000 to 10000	< 5	< 5	C[C@@H]1CCn2nc(-c3ccc(C(=O)Nc4cc(C(F)(F)F)ccn4)cc3)c3c(N)ncc(c32)/C=C/C[S+]([O-])CC(=O)N1 (stereo partly drawn) [Example 65]	500 to 10000
1000 to 10000	50 to 500	50 to 500	Nc1ncc2c3c1c(-c1ccc(C(=O)Nc4ccccn4)cc1)nn3[C@@H]1CCC[C@H](C1)NC(=O)CCCC/C=C/C2 [Example 100a]	500 to 10000
100 to 1000	5 to 50	< 5	Nc1ncc2c3c1c(-c1ccc(C(=O)Nc4cc(C(F)(F)F)ccn4)cc1)nn3[C@@H]1CCC[C@H](C1)C(=O)NCCC/C=C\C2 [Example 84b]	–
1000 to 10000	5 to 50	5 to 50	Nc1ncc2n3c(nc(-c4ccc(C(=O)Nc5cc(C(F)(F)F)ccn5)cc4)c13)CCCNC(=O)CCC=CC2 [Example 134]	–
